Residues, ends and D or L forms follow the SMILES beside them. *: point of attachment. pNA = O=[N+]([O-])c1ccc(N*)cc1; AMC = Cc1cc(=O)oc2cc(N*)ccc12; βNA = c1ccc2cc(N*)ccc2c1; Cbz = O=C(OCc1ccccc1)*
Legend:
[1] = tested on: dDAP; test: pH dependence of substrate cleavage by dDAP; assay type: biochemical, Dictyostelium discoideum; details: unbound dDAP
Procedure: The pH optima for the GFpNA cleaving ability of dDAP was determined by adjusting a buffer consisting of 0.5M Tris®, phosphate and citrate with 10% HCl or 10% NaOH to various pHs within the range of 3 to 8. dDAP enzyme was diluted 20-fold in a buffer containing 100 mM cysteamine and 10 mM NaCl. Bovine DAP-I was diluted 200-fold in the same buffer. A GFpNA substrate solution (4 mM) was prepared in 2% dimethylformamide. In a microtiter plate, 0.025 ml of the Tris/phosphate/citrate buffer of various pH's was combined with 0.1 ml of diluted enzyme and with 0.1 ml of substrate solution. The rate of increase of absorbance at 410 nm was determined on a plate-reader over a 30 minute period.
Four mM GRpNA was prepared in 50 mM acetic acid, 50 mM glycine buffer, pH 5. HCl or NaOH was used to achieve a variety of pHs, from 5.1 to 2.3. To 180 ul of the above pH buffered substrate was added 5 ul dDAP (49 milliunits/ml final). The rate of increase of absorbance at 410 nm was monitored (using a plate-reader) and the rate of increase was compared with the pH of the reaction solution.
(§1) About 0.25 mM RRBNA or 0.25 mM Z-RRBNA was prepared in either 100 mM acetic acid, pH 3.5, or 100 mM citrate buffer, pH 5.0. To 2 ml of substrate was added dDAP or bovine DAP-I (about 15 milliunit/ml solution). Rates of cleavage (monitoring fluorescence increase at 410 nm with excitation at 340 nm) were monitored. […] The pH optimum for cleavage of RRBNA was probed by monitoring the rate of RRBNA cleavage using a buffer system consisting of 50 mM acetic acid and 50 mM citrate. Various pHs were achieved using HCl or NaOH and 1.5 ml volumes were made 2.0 with 0.5 ml of a 1 mM stock solution of RRBNA (final concentration of about 0.25 mM). dDAP was added (to about 15 mU/ml) and the rates of cleavage were determined.
The skilled artisan will recognize that the optimum pH for cleavage of a substrate not only depends upon the enzyme but the substrate itself, that is, the constitution of the removed dipeptide as well as the indicator group itself.

[2] = tested on: dDAP; test: Cleavage of RRBNA and Z-RRBNA (fluorescence increase); assay type: biochemical, Dictyostelium discoideum; details: about 0.25 mM substrate, pH 3.5 or pH 5.0, about 15 milliunit/ml enzyme
Procedure: as §1

[3] = molecular target: T1, bovine DAP-I (Bos taurus, UniProt Q3ZCJ8); test: as above; assay type: biochemical; details: about 0.25 mM substrate, pH 3.5 or pH 5.0, about 15 milliunit/ml enzyme
T1 construct: bovine spleen DAP-I; from tissue; host or cells: bovine spleen
Procedure: as §1

[4] = molecular target: T2, bovine spleen DAP-I (Bos taurus, UniProt Q3ZCJ8); test: Inhibition of GFpNA cleavage by sulfhydryl modifying agents; assay type: biochemical; details: 5 mM inhibitor, 15 minutes at room temperature, pH 7; then 4 mM GFpNA, pH 3.5, 37° C.; read-out: decrease (inhibition) of rate of cleavage of GFpNA
T2 construct: bovine spleen DAP-I; from tissue; host or cells: bovine spleen
Procedure: (§2) After purification or storage, dDAP enzymatic activity was usually monitored by following the cleavage of the chromogenic substrate GFpNA. Typically the assay was performed by diluting the enzyme at least 11 fold into 1.0 ml of 4 mM GFpNA in 0.05M acetic acid adjusted to pH 3.5. The rate of cleavage of Gly-Phe dipeptide was monitored at 37° C. by measuring the increase in absorbance at 405 nm. One unit of activity leads to a 0.90 OD change per minute under these conditions. Unit/ml estimates can be made assuming an extinction coefficient for free p-nitroanilide (pNA) of 9.9 mM-1 cm-1 at 405 nm.
(§3) The inhibition profile of dDAP toward the substrate GFpNA was compared to that of bovine spleen DAP-I using iodoacetamide and potassium tetrathionate, sulfhydryl modifying agents known to inhibit the activity of bovine spleen DAP-I. Samples of dDAP or bovine spleen DAP-I were incubated for 15 minutes at room temperature in final concentrations of 0, 0.5, 5.0 or 50 mM of either inhibitor at pH 7 in 100 mM Tris buffer. The incubated solutions were then diluted 21-fold with 4 mM GFpNA, pH 3.5. The rate of cleavage was monitored by measuring the increase in absorbance at 405 nm at 37° C. Bovine DAP-I's rate of cleavage of GFpNA was decreased more than 90% by the exposure to 5 mM iodoacetamide and was 95% inhibited by 5 mM potassium tetrathionate.

[5] = tested on: dDAP; test: as above; assay type: biochemical, Dictyostelium discoideum; details: 0.5, 5.0 or 50 mM inhibitor, 15 minutes at room temperature, pH 7; then 4 mM GFpNA, pH 3.5, 37° C.
Procedure: as §2, §3

T1 sequence (Q3ZCJ8 231-394 limits assumed): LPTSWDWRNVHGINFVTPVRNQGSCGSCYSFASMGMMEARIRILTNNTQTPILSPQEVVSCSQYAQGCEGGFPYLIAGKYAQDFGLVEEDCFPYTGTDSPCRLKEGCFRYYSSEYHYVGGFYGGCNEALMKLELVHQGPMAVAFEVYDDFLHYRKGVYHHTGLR
T1 sequence (Q3ZCJ8 395-463 limits assumed): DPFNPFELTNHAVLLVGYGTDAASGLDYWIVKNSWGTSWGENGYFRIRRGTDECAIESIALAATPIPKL
T1 sequence (Q3ZCJ8 25-143 limits assumed): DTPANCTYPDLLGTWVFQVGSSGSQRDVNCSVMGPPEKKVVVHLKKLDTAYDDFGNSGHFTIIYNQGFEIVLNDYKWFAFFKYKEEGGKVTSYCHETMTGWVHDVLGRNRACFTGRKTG
T2 sequence (Q3ZCJ8 231-394 limits assumed): as the sequence (Q3ZCJ8 231-394 limits assumed) above
T2 sequence (Q3ZCJ8 395-463 limits assumed): as the sequence (Q3ZCJ8 395-463 limits assumed) above
T2 sequence (Q3ZCJ8 25-143 limits assumed): as the sequence (Q3ZCJ8 25-143 limits assumed) above

NCC(=O)N[C@@H](Cc1ccccc1)C(=O)Nc1ccc([N+](=O)[O-])cc1 [GFpNA, Gly-Phe p-nitroanilide] (H-Gly-Phe-pNA)
pH optimum for cleavage of the substrate [1]: ~3.5 pH

N=C(N)NCCC[C@H](NC(=O)CN)C(=O)Nc1ccc([N+](=O)[O-])cc1 [GRpNA, Gly-Arg-pNA] (H-Gly-Arg-pNA)
activity over the pH range [1]: little activity below pH 2.5 or above pH 5
pH optimum for cleavage of the substrate ([1]; listed as G1y-Arg-pNA): ~3.5 pH

Cc1cc(=O)oc2cc(NC(=O)[C@H](CCCNC(=N)N)NC(=O)CN)ccc12 [Gly-Arg-7-amido-4-methylcoumarin] (H-Gly-Arg-{AMC})
pH optimum for cleavage of the substrate [1]: ~5 pH

N=C(N)NCCC[C@H](NC(=O)[C@@H](N)CCCNC(=N)N)C(=O)Nc1ccc2ccccc2c1 [RRBNA, Arg-Arg-β-naphthylamide] (H-Arg-Arg-βNA)
activity over the pH range [1]: significant activity seen over the entire range probed (pH 3.5 to pH 5.7)
cleavage of substrate [2]: able to effectively cleave
cleavage of substrate [3]: unable to cleave

N=C(N)NCCC[C@H](NC(=O)OCc1ccccc1)C(=O)N[C@@H](CCCNC(=N)N)C(=O)Nc1ccc2ccccc2c1 [Z-RRBNA, Benzyioxycarbonyl-RRBNA] (Cbz-Arg-Arg-βNA)
cleavage of substrate [2]: unable to cleave
cleavage of substrate [3]: unable to cleave

NC(=O)CI [iodoacetamide]
inhibition at 5000 µM [4]: > 90%
inhibition of GFpNA cleavage [5]: no evidence of significant inhibition

O=S(=O)([O-])SSS(=O)(=O)[O-].[K+].[K+] [potassium tetrathionate]
inhibition of GFpNA cleavage [5]: no evidence of significant inhibition

From patent publication US5573923A, “Method for removing N-terminal dipeptides from precursor polypeptides with immobilized dipeptidylaminopeptidase from dictyostelium discoideum” (Eli Lilly and Company, priority 1993, dated 1996)
